Source: patent US4254123A, “Novel imidazoquinoxalines” (Roussel Uclaf, priority 1978, dated 1981)
Read-outs that look alike come from different tables or passages of the source.

System: Passive cutaneous anaphylaxis
Test: Passive cutaneous anaphylaxis (PCA) in rats
Assay type: in vivo
Details: dosed immediately prior to i.v. antigen/Evans blue challenge, blueing scored after 30 minutes; for ED50: Rattus norvegicus, 0.5 h
Procedure: Cutaneous anaphylaxis can be induced in rats by intradermal (ID) sensitization with antiserum followed three days later by systemic challenge with antigen. Evans blue dye injected with the antigen is used as a marker to assess the severity of the local response. Anti-allergic drugs inhibit this reaction. […] Brown: Pergamon Press:-male rats weighing 180-220 grams are used in groups of seven.
1. Wash 120 grams of Al(OH)3 gel in 140 ml of saline (use of a macerater facilitates mixing).
2. Centrifuge at 3,000 r.p.m. for about 10 minutes.
3. Resuspend the precipitate with 300 ml of albumen egg powder (1.3 mg/ml) in saline and allow to stand for 30 minutes.
4. Centrifuge at 3,000 r.p.m. for 10 minutes.
5. Weigh the wet precipitate and to each gram weight add 1 ml of saline. Store in refrigerator (Quantity sufficient for 60 rats for a 3 day sensitization program).
1 ml of the alum precipitated ovalbumen was injected subcutaneously into rats weighing 180-200 grams on days 0,2,4. The rats were bled on day 14 either by cardiac puncture of via the dorsal abdominal aorta. Equal quantities of serum from each animal were pooled and thoroughly mixed and 2 ml aliquots were stored at -20° C. in plastic tubes.
(A) SENSITIZATION: The rats were anaesthetized with Nembutal (40-60 mg/kg i.p.) and were then sensitized by four ID injections (0.1 ml each) on their shaved backs. The animals were then left for a period of three days to develop sensitization.
The injections were speeded up by using an automatic 1 ml self-filling glass syringe. The "challenged" rats were killed after 30 minutes, (usually pithed) and their skin on the dorsal surface was removed. The degree and area of blueing, proportional to the anaphylactic reaction was assessed on a four point scoring system.
1. Total scores for sites 1,2,3 and 4=X
2. Mean value of X for each group=X
3. X t=X for test group; X c=X for control group [formula]

[1] = intravenous, read-out: ED 50 (dose of drug giving 50% inhibition), intravenously

Compound `O=C(O)c1cn2c(cnc3cc(Cl)c(Cl)cc32)n1` [Example 3, 7,8-dichloro-imidazo-[1,2-a]-quinoxaline-2-carboxylic acid] has an ED50 [1] of 0.2 mg/kg.

In the case of `O=C(O)c1cn2c(cnc3ccccc32)n1` [Example 1, Imidazo-[1,2-a]-quinoxaline-2-carboxylic acid], the ED50 [1] is reported as 0.073 mg/kg and the ED50 (oral, read-out: ED 50 (dose of drug giving 50% inhibition), orally) is reported as 0.73 mg/kg.

In the case of `NC(=O)c1nc2ccccc2n2cc(C(=O)O)nc12` [Example 6, 4-carbamoyl-imidazo-[1,2-a]-quinoxaline-2-carboxylic acid], the ED50 [1] is reported as 3.13 mg/kg.

For “7- and 8-chloro-imidazo-[1,2-a]-quinoxaline-2-carboxylic acid [Example 4]”, the “ED 50 (dose of drug giving 50% inhibition), intravenously” value (intravenous) was 0.12 mg/kg and the “ED 50 (dose of drug giving 50% inhibition), orally” value (oral) was 0.71 mg/kg.

In the case of `CCOc1nc2ccccc2n2cc(C(=O)O)nc12` [Example 5, 4-ethoxy-imidazo-[1,2-a]-quinoxaline-2-carboxylic acid], the ED50 [1] is reported as 0.83 mg/kg.
